Experimental data from US9382295B2, “Cyclic depsipeptide compounds and their uses” (Cypralis Limited, priority 2012, dated 2016).
Read-outs that look alike come from different tables or passages of the source.

Experiments:
[1] = Water solubility assay (pH 7.8 buffer); type: physicochemical; details: pH 7.8
In short: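 DMSO stocks were diluted into 35 mM HEPES pH 7.8 to final 0–100 μM with 1% DMSO, in triplicate. Plates were shaken 18 h at 25 °C, then precipitation was detected as increased absorbance at 650 nm. Values give the concentration (μM) at which the compound remains in solution.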

[2] = Rat pharmacokinetics, iv and po dosing, whole blood and plasma; type: in vivo; details: for AUC(0-inf) / AUC(0-t) / Cmax / half-life / clearance / Vd / bioavailability / Tmax: mean; for half-life: read-out: half-life (T1/2) (converted); for clearance: read-out: systemic clearance (converted); for Vd: read-out: volume of distribution at the terminal phase; for bioavailability: po 10 mg/kg vs iv 1 mg/kg
Experimental: Rat pharmacokinetic data was obtained for example 2, following iv dosing at 1 mg/kg and po dosing at 10 mg/kg and individual analysis of plasma and whole blood samples at various time points was carried out.

[3] = target: T1, calcineurin/cyclophilin A (Homo sapiens, UniProt P62937+P63098+Q08209); test: Calcineurin phosphatase (CaN) assay in the presence of Cyp A; type: biochemical; details: inhibitor in 1:1 complex with Cyp A; read-out: CaN + CypA (IC50 in the calcineurin/cyclophilin A assay)
T1 construct: purchased Enzo Life Sciences (calcineurin, calmodulin); Sigma (CypA) BML-AK804; C3805
Text: **Calcineurin Phosphatase (CaN) Assay The calcineurin phosphatase assay is a means for estimating the immunosuppressive potential of a test compound. Calcineurin is a serine-threonine protein phosphatase that on activation dephosphorylates members of the nuclear factor of activated T cells (NFAT), which are important in T lymphocyte activation. […] To investigate the immunosuppressive potential of exemplary compounds of Formula 1, which are novel cycloundecadepsipeptide compounds, their ability to inhibit calcineurin activity was measured in the presence of Cyp A. The CaN assay kit used is based on a colorimetric assay for measuring calcineurin phosphatase activity, and it is commercially available (Enzo Life Sciences and Calbiochem). Calmodulin is also required for calcineurin activity and RH phosphopeptide is used as an efficient peptide substrate for calcineurin. […] The detection of free phosphate released is based on the classic Malachite green assay. Enzo Life Sciences CaN Assay Kit: BML-AK804 2× assay buffer: 100 mM Tris, pH7.5, 200 mM NaCl, 12 mM MgCl2, 1 mM DTT, 0.05% NP-40, 1 mM CaCl2 Calmodulin (Human, Recombinant): was thawed on ice, diluted 1:50 with 2× assay buffer, and then stored on ice. Calcineurin: was thawed quickly, stored on ice immediately, diluted 1:12.5 with 1× assay buffer, and then stored on ice. R-II Substrate: 915 μL ultrapure water (UPW) was added to the 1.5 mg vial substrate to give a final concentration of 0.75 mM. Inhibitors: 2.5 mM inhibitor in 100% DMSO. Cyp A: recombinant human CypA (Sigma C3805), 1 mg/ml; Recombinant 6-his tagged CypA prepared by the Univ. of Edinburgh was also used. […] Inhibitor dilutions: inhibitor compounds were diluted in UPW in polypropylene low-binding 96 well plates at 5x the final assay concentration. For samples ‘without Cyp A’, a 4-point dilution series of the inhibitor was prepared in duplicate to obtain a final assay concentration of 10, 1, 0.1 and 0.01 μM. […] Cs A inhibitor controls were also prepared to obtain a final concentration of 10 μM Cs A with and without 10 μM Cyp A. Assay Setup: using the half area 96 well plates supplied with the kit, 10 μl UPW was added to duplicate wells to provide the non-inhibited control. 10 μl of the inhibitor or the inhibitor/Cyp A complex was added to the appropriate sample wells. 25 μl of the 2× assay buffer with CaM was added to all wells, then 5 μl of CaN was added to all wells (40 U per well final concentration) except duplicate ‘no calcineurin blank’ wells to which 5 μL 1× assay buffer was added. […] The reaction was started by the addition of 10 μl RII-peptide (0.15 mM final concentration). The reaction was allowed to proceed at 30° C. for a time period in which the reaction is linear for about 60 minutes. The reaction was then terminated by adding 100 μl of the Malachite Green reagent. […] The data were analyzed by subtracting ‘no Calcineurin blank’ from all the absorbance readings and plotting the background corrected absorbances against Log10 inhibitor concentration. A sigmoidal-dose response curve was fitted to the data using GraphPad Prism Software. […] It exerts its immunosuppressive activity by binding to cyclophilin A to form a complex, which then binds to calcineurin and thereby inhibits calcineurin activity.

T1 sequence (P63098 whole entry, other chains not shown): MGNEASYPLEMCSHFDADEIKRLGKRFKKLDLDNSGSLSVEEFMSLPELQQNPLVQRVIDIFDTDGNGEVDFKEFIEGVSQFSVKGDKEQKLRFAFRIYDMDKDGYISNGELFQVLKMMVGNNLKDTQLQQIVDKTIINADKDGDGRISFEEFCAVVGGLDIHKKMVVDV
T1 sequence (P62937 whole entry, other chains not shown): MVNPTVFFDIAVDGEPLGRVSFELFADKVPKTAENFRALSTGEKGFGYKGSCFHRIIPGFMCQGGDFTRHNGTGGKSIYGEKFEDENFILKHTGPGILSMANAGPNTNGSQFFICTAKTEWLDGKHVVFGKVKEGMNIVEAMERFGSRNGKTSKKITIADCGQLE

Compound: CC(C)CC1NC(=O)[C@H](CC(C)C)N(C)C(=O)CN(C)C(=O)C([C@@H](C)O)NC(=O)C([C@H](O)[C@H](C)CCN2CCOCC2)N(C)C(=O)C(C(C)C)N(C)C(=O)C(CC(C)C)NC(=O)C(CC(C)C)N(C)C(=O)C(C(C)C)OC(=O)C(C)NC(=O)C(CC(C)C)N(C)C1=O (stereo in doubt) [Example 2, cyclo-[(3R,4R,5S)-4-(hydroxy)-3-methyl-5-(methylamino)-1-N-morpholino-hexanoic acid-Thr-Sar-MeLeu-Leu-MeLeu-Ala-D-Hiv-MeLeu-Leu-MeVal]]
- solubility at 18 h [1]: > 100 µM
- blood plasma ratio ([2]; intravenous, 1 mg/kg, from volumes of distribution in plasma and whole blood, read-out: difference in blood to plasma ratio): ~3
- systemic clearance relative to hepatic blood flow in rats (3.31 L/hr/kg) ([2]; plasma, iv 1 mg/kg): 1.26 fold
- volume of distribution relative to total body water (0.67 L/kg) in rats ([2]; plasma, iv 1 mg/kg): 44.69 fold
- AUC(0-inf) ([2]; plasma, iv 1 mg/kg): 239 ng·h/mL
- AUC(0-t) ([2]; plasma, iv 1 mg/kg): 197 ng·h/mL
- Cmax ([2]; plasma, iv 1 mg/kg): 275 ng/mL
- half-life ([2]; plasma, iv 1 mg/kg): 4.96 h
- clearance ([2]; plasma, iv 1 mg/kg): 69.7 mL/min/kg
- Vd ([2]; plasma, iv 1 mg/kg): 29.9 L/kg
- bioavailability ([2]; plasma): 95.9%
- AUC(0-inf) ([2]; plasma, po 10 mg/kg): 2290 ng·h/mL
- AUC(0-t) ([2]; plasma, po 10 mg/kg): 2250 ng·h/mL
- Tmax ([2]; plasma, po 10 mg/kg): 2 h
- Cmax ([2]; plasma, po 10 mg/kg, read-out: Cmax): 328 ng/mL
- half-life ([2]; plasma, po 10 mg/kg): 4.4 h
- systemic clearance as share of hepatic blood flow in rats (3.31 L/hr/kg) ([2]; whole blood, iv 1 mg/kg): 35.0%
- volume of distribution relative to total body water (0.67 L/kg) in rats ([2]; whole blood, iv 1 mg/kg): 15.40 fold
- AUC(0-inf) ([2]; whole blood, iv 1 mg/kg): 859 ng·h/mL
- AUC(0-t) ([2]; whole blood, iv 1 mg/kg): 827 ng·h/mL
- Cmax ([2]; whole blood, iv 1 mg/kg): 643 ng/mL
- half-life ([2]; whole blood, iv 1 mg/kg): 6.14 h
- clearance ([2]; whole blood, iv 1 mg/kg): 19.3 mL/min/kg
- Vd ([2]; whole blood, iv 1 mg/kg): 10.3 L/kg
- bioavailability ([2]; whole blood): 70.1%
- AUC(0-inf) ([2]; whole blood, po 10 mg/kg): 6020 ng·h/mL
- AUC(0-t) ([2]; whole blood, po 10 mg/kg): 5930 ng·h/mL
- Tmax ([2]; whole blood, po 10 mg/kg): 2 h
- Cmax ([2]; whole blood, po 10 mg/kg, read-out: Cmax): 678 ng/mL
- half-life ([2]; whole blood, po 10 mg/kg): 4.03 h
- IC50 [3]: > 1 µM
